Measurements published in patent publication US9278086B2, “Combination therapy and uses thereof for treatment and prevention of parasitic infection and disease” (The Royal Institution for the Advancement of …, priority 2010, dated 2016).
Marks after values point to notes of the source that are not given here.

How the values were obtained:
[1] = humans, oral dose 1475 mg Cys bitartrate (500 mg cysteamine base), cited from earlier work
Plasmodium chabaudi [2] = experiment: 4-day test, P. chabaudi (10^7 pRBC i.v.) in pantetheinase-deficient A/J mice, blood parasitemia days 4 and 5; assay type: in vivo; conditions: for effect of addition of Cys on inhibition of parasitemia versus additive effect of the two compounds: Cys 170 mg/kg added to ART (0.2 or 0.5 mg/kg) or DHA (0.15 or 0.3 mg/kg); for Inhibition of parasitemia Day 4 / Inhibition of parasitemia Day 5: days 0-3; for symptoms of disease (ruffled fur, lethargy): mice receiving both Cys and ART/DHA, compared to PBS or only one compound; for inhibition of parasitemia compared to PBS-treated controls: ART 0.2 mg/kg alone
Experimental: (§1) A/J and C57BL/6 (B6) mice were purchased from the Jackson Laboratories (Bar Harbor, Me.) and were housed at McGill University according to the guidelines of the Canadian Council on Animal Care. An LDH virus-free isolate of P. chabaudi AS was maintained by weekly passage in A/J mice. Mice were infected intravenously into the tail vein (i.v.) with 10^6 or 10^7 pRBC suspended in pyrogen-free saline. Following infection, the percentage of pRBC was determined daily on thin blood smears stained with Dif-Quik™ (Dade Behring, Newark, Del.), as described (Fortin A, et al. (2001) Proc Natl Acad Sci USA 98: 10793-10798).
(§2) Cysteamine hydrochloride (Sigma, Burlington ON) was prepared in PBS. Chloroquine hydrochloride, artesunate and dihydroartemisinin were provided by Dafra Pharmaceuticals; chloroquine was prepared in PBS, artesunate and DHA were prepared in 5% sodium bicarbonate and diluted in water to appropriate concentrations. All solutions were prepared fresh daily, filter sterilized and injections were performed intra-peritoneally (i.p) or subcutaneously (s.c.) for 4 days or according to treatment regimen. Mice were weighed prior to treatment to determine appropriate doses and injection volumes ranged from 100-400 μL per mouse. In the case of animals treated with two drugs, artemisinin derivatives were administered first (due to the short half life of cysteamine), followed by cysteamine 5-10 minutes later on alternate sides. Untreated control animals were injected with PBS alone.
(§3) Groups with normally distributed data points were compared using parametric unpaired t-tests, while groups with non-Gaussian distributions were compared using non-parametric Mann-Whitney tests. Survival differences were analyzed using the Log-Rank test. […] Standard error of percent inhibition was calculated from individual mice compared to the mean parasitemia level of the control group.
(§4) The effect of Cys on the potency and efficacy of the anti-malarial artemisinin derivatives was tested. […] Synergy (Tallarida R J (2001) J Pharmacol Exp Ther 298: 865-872) is defined as a total anti-malarial activity (reduction in blood parasitemia compared to untreated controls in a standard 4-day test) of the two compounds administered together being greater than the sum of the independent activities of the two compounds given alone. We tested combinations of Cys and either artesunate (ART) or dihydroartemisinin (DHA), the bioactive form of artemisinin. Pantetheinase-deficient mice were infected with P. chabaudi (10^7 pRBC, i.v.) and treated with Cys (170 mg/kg) and/or sub-optimal doses of ART (0.2 or 0.5 mg/kg) (FIG. 3A) or DHA (0.15 or 0.3 mg/kg) (FIG. 3B) from day 0-3 and parasitemia was monitored on days 4 and 5. […] Potentiation of the anti-malarial activity of ART (0.5 mg/kg) by Cys was also clearly evident in these C57BL/6 mice at both days 4 and 5 post-infection, with combined treatment causing a 65-71% reduction in parasitemia compared to PBS controls, greater than either compound tested alone (13-29%) (TABLE 1).
It was subsequently examined whether Cys potentiation of ART was dose dependent. Initially, Cys doses of 60, 100, 140 and 180 mg/kg were tested with a sub-optimal ART dose of 0.2 mg/kg. The drugs were administered from day 0-3 post infection, parasitemia was counted at day 4 and day 5 and the percent inhibition was calculated compared to PBS-treated controls (FIG. 4A). At 0.2 mg/kg, ART alone inhibits parasitemia by ˜20% (day 4) and 40% (day 5) while inhibition by Cys alone was partially dose dependent (varying between 10% and 25%). […] It was also assessed whether Cys could potentiate low doses of artesunate which, given alone, have no significant effect on parasitemia. In this experiment, Cys (170 mg/kg) was administered in combination, or not, with increasing doses of ART (0.05, 0.1, 0.2, 0.4 mg/kg) in the same 4-day experimental protocol.

Plasmodium berghei ANKA = Plasmodium berghei ANKA infection (cerebral malaria model) in C57BL/6J mice, parasitemia and survival; assay type: in vivo
Experimental: FIGS. 8A and 8B show the results of two independent experiments on the effect of cysteamine and artesunate combinations on the progression of Plasmodium berghei ANKA infection (parasitemia). Groups of 5 adult 18-20 g C57BL/6J males and females were infected intravenously with 1×10^6 erythrocytes parasitized with P. berghei ANKA at time “0”. Two hours later, mice were injected i.p with either Artemisinin alone or with Artemisinin/Cysteamine combinations (at the indicated concentrations in mg/kg body weight). In the case of the latter, Artemisinin was injected first in one quadrant, and cysteamine was injected second, 10-15 minutes later in another quadrant. The drug treatment was further repeated at days 1, 2 and 3 post-infection to emulate the standard 4-day test used in anti-malarial drug discovery. Starting at day 5, blood was collected, thin blood smears were prepared, and parasitemia was determined (400 erythrocytes counted, expressed as percentage parasitized erythrocytes). Error bars show standard deviations on the mean; and
FIGS. 9A and 9B show the results of two independent experiments on the effect of cysteamine and artesunate combinations on the survival of Plasmodium berghei ANKA-infected mice. Infection and drug administration were performed as described above for FIGS. 8A and 8B. Animals were monitored for the appearance and severity of cerebral symptoms (CM phase, shown as rectangle in graph), and moribund animals were euthanized, and time of death was recorded.
Intravenous infection with Plasmodium berghei ANKA is an accepted mouse model of cerebral malaria (CM) (Hunt, N. H. et al. 2006, Int. J. Parasitol. 36: 569-582). The infection causes the following pathology. First, there is appearance of blood parasitemia, starting at days 3 or 4, which can go up to 10% by day 7-8. Starting at day 5-6, there is emergence of cerebral symptoms caused by permeability of the blood brain barrier, concomitant to trapping of parasitized red cells in the microvasculature and acute pathological host inflammatory response in situ. This cerebral phase quickly progresses from tremors, to paralysis, to coma, and is uniformly lethal in mice by days 8-10. In this model, progress of infection and possibly drug effects may be monitored by a) appearance and intensity of blood parasitemia (between days 5-8), b) appearance of cerebral symptoms, and c) lethality.

Plasmodium chabaudi [3] = experiment: 4-day test, P. chabaudi (10^7 pRBC i.v.) in pantetheinase-sufficient C57BL/6 mice, blood parasitemia days 4 and 5; assay type: in vivo; conditions: for Inhibition of parasitemia Day 4 / Inhibition of parasitemia Day 5: days 0-3
Experimental: as §1, §2, §3, §4

Plasmodium chabaudi [4] = experiment: Progression, resolution and survival of lethal P. chabaudi infection (10^6 pRBC i.v.) in A/J mice; assay type: in vivo
Experimental: as §1, §2
It was investigated if low dose Cys could potentiate standard doses of ART that show therapeutic activity in vivo and concurrently determined possible long-term effects on patent parasitemia, resolution of infection and survival in a lethal infection model. In this protocol, mice were infected with 10^6 pRBC P. chabaudi (i.v.) and treated with Cys (60 mg/kg) and/or ART (0.5, 1, 2, 5 and 10 mg/kg) for 4 days (days 0-3), while blood parasitemia and survival were followed for 22 days. Control animals treated with either PBS or Cys alone (60 mg/kg) developed high parasite burdens, which peaked at day 6, and all mice succumbed to the infection by day 7 (FIGS. 5A and 5C). […] Likewise, although all mice treated with 0.5 mg/kg ART succumbed to the infection early (day 8), mice additionally receiving Cys survived until day 9; moreover, addition of Cys to 1.0 mg/kg ART completely rescued animals from lethality of infection, with 100% survival in this group (FIGS. 5B, 5C).

Plasmodium chabaudi [5] = experiment: Progression of P. chabaudi infection (10^6 pRBC i.v.) in pantetheinase-sufficient B6 mice; assay type: in vivo
Experimental: as §1, §2
To investigate whether the effects on parasite burden over the course of infection would also be observed with a pantetheinase-sufficient mouse strain, a similar experiment was performed using female B6 mice. Groups of mice were infected with 10^6 P. chabaudi pRBC i.v. and treated with PBS, 1 mg/kg or 30 mg/kg of Art, or 1 mg/kg or 30 mg/kg of Art plus 60 mg/kg of Cys for 4 days. […] As in A/J mice, the effect of Cys addition to 1 mg/kg of Art has a clear effect on early parasite replication at day 6 (FIG. 6B). […] B6 mice were able to completely clear parasite burdens and survive the infection, even in the control PBS-treated group.

[6] = A/J mice, DHA 0.15 mg/kg + cysteamine 170 mg/kg i.p.
[7] = A/J mice, DHA 0.3 mg/kg + cysteamine 170 mg/kg i.p.
[8] = artesunate 0.5 mg/kg + cysteamine 170 mg/kg i.p.
[9] = A/J mice, artesunate 0.2 mg/kg + cysteamine 170 mg/kg i.p.
[10] = A/J mice, artesunate 0.2 mg/kg alone
[11] = A/J mice, artesunate 0.5 mg/kg + cysteamine 170 mg/kg i.p.
[12] = A/J mice, artesunate 0.5 mg/kg alone

## NCCS [Cys bitartrate, cysteamine bitartrate]
[1]; read-out: peak plasma concentration (Cmax)
  Cmax: 39 µM

## NCCS.O=C(O)C(O)C(O)C(=O)O (centres unmarked) [Cys bitartrate, cysteamine bitartrate]
[1]
  AUCT0-Tlast: 3613 min

## C[C@@H]1CCC2[C@@H](C)[C@H](O)O[C@@H]3O[C@]4(C)CCC1C23OO4 (some centres unmarked) [DHA, dihydroartemisinin]
Plasmodium chabaudi [2]; A/J mice
  effect of addition of Cys on inhibition of parasitemia versus additive effect of the two compounds: synergistic effect
Plasmodium chabaudi [2]; [6]
  Inhibition of parasitemia Day 4: 56* % PBS control
  Inhibition of parasitemia Day 5: 46* % PBS control
Plasmodium chabaudi [2]; A/J mice, DHA 0.15 mg/kg alone
  Inhibition of parasitemia Day 4: 22 % PBS control
  Inhibition of parasitemia Day 5: 13 % PBS control
Plasmodium chabaudi [2]; [7]
  Inhibition of parasitemia Day 4: 80 % PBS control
  Inhibition of parasitemia Day 5: 71* % PBS control
Plasmodium chabaudi [2]; A/J mice, DHA 0.3 mg/kg alone
  Inhibition of parasitemia Day 4: 50 % PBS control
  Inhibition of parasitemia Day 5: 40 % PBS control
Plasmodium chabaudi [2]
  symptoms of disease (ruffled fur, lethargy): fewer symptoms of disease

## C[C@@H]1CCC2[C@@H](C)C(=O)O[C@@H]3O[C@]4(C)CCC1C23OO4 (some centres unmarked) [Artemisinin]
Plasmodium berghei ANKA; Artemisinin 5 or 10 mg/kg + Cysteamine i.p., days 0-3
  rise and absolute levels of parasitemia (days 6-8) versus Artemisinin alone: delay in the rise of parasitemia
Plasmodium berghei ANKA; cysteamine added to Artemisinin
  prolongation of survival over Artemisinin alone: 1 to 2 days
Plasmodium berghei ANKA; two independent experiments (FIG. 8A, 8B)
  effect of adding cysteamine compared with doubling the dose of Artemisinin: comparable (FIG. 8A) or superior (FIG. 8B)

## C[C@H]1[C@H](OC(=O)CCC(=O)O)O[C@@H]2O[C@@]3(C)CC[C@H]4[C@H](C)CC[C@@H]1[C@@]24OO3 [Artesunate, artesunate]
Plasmodium chabaudi [3]; ART 0.5 mg/kg combined with Cys 170 mg/kg, days 4 and 5
  reduction in parasitemia compared to PBS controls: 65-71%
Plasmodium chabaudi [3]; [8]
  Inhibition of parasitemia Day 4: 71* % PBS control
  Inhibition of parasitemia Day 5: 65* % PBS control
Plasmodium chabaudi [3]; artesunate 0.5 mg/kg alone
  Inhibition of parasitemia Day 4: 29 % PBS control
  Inhibition of parasitemia Day 5: 21 % PBS control
Plasmodium chabaudi [4]; ART 0.5 mg/kg + Cys 60 mg/kg
  day until which mice survived: 9 days
Plasmodium chabaudi [4]; ART 0.5 mg/kg alone
  day at which all mice succumbed to the infection: 8 days
Plasmodium chabaudi [4]; ART 1.0 mg/kg + Cys 60 mg/kg
  survival: 100%
Plasmodium chabaudi [4]; ART alone 0.5-10 mg/kg, dose-dependent
  effect on infection (onset and peak of parasitemia): delay in the onset of parasitemia and a reduction of peak parasitemia
Plasmodium chabaudi [4]; Cys 60 mg/kg added to 0.5 mg/kg or 1 mg/kg ART
  further reduction in parasitemia at day 6: 60-70%
Plasmodium chabaudi [4]; Cys 60 mg/kg added to all ART doses tested
  peak levels of parasitemia relative to the corresponding dose of ART alone: reduction of peak levels of parasitemia
Plasmodium chabaudi [2]; A/J mice, day 4 (FIG. 4A)
  inhibition of parasitemia compared to PBS-treated controls: ~20%
Plasmodium chabaudi [2]; A/J mice, day 5 (FIG. 4A)
  inhibition of parasitemia compared to PBS-treated controls: 40%
Plasmodium chabaudi [2]; A/J mice, ART 0.1 and 0.2 mg/kg combined with Cys 170 mg/kg (FIG. 4C)
  inhibition of parasitemia replication: 60-75%
Plasmodium chabaudi [2]; A/J mice, ART 0.1 and 0.2 mg/kg used alone (FIG. 4C)
  inhibition of parasitemia replication: < 10%
Plasmodium chabaudi [2]; A/J mice
  effect of addition of Cys on inhibition of parasitemia versus additive effect of the two compounds: synergistic effect
Plasmodium chabaudi [2]; A/J mice, Cys 170 mg/kg with ART 0.05, 0.1, 0.2, 0.4 mg/kg (FIG. 4C)
  potentiation of low-dose artesunate by Cys: ≥ 3 fold
Plasmodium chabaudi [2]; [9]
  Inhibition of parasitemia Day 4: 65* % PBS control
  Inhibition of parasitemia Day 5: 56* % PBS control
Plasmodium chabaudi [2]; [10]
  Inhibition of parasitemia Day 4: 30 % PBS control
  Inhibition of parasitemia Day 5: 20 % PBS control
Plasmodium chabaudi [2]; [11]
  Inhibition of parasitemia Day 4: 93 % PBS control
  Inhibition of parasitemia Day 5: 80* % PBS control
Plasmodium chabaudi [2]; [12]
  Inhibition of parasitemia Day 4: 65 % PBS control
  Inhibition of parasitemia Day 5: 43 % PBS control
Plasmodium chabaudi [2]
  symptoms of disease (ruffled fur, lethargy): fewer symptoms of disease
Plasmodium chabaudi [5]; 30 mg/kg Art plus Cys 60 mg/kg
  outward symptoms of disease (lethargy, ruffled fur): did not display any outward symptoms of disease
  parasite levels: under 12 % pRBC
Plasmodium chabaudi [5]; Art 1 or 30 mg/kg + Cys 60 mg/kg, 4 days
  parasite levels and peak compared to Art administered alone: reduction in parasite levels and a delay in the peak
